Measurements: US20200010910A1, “Cytotoxic Chemotherapy-Based Predictive Assays for Acute Myeloid Leukemia” (The Regents of The University of California, priority 2017, published 2020)
Where “and” joins values, the source holds several entries; their conditions need not be identical. Identical values can stand only once.

Legend:
BT 549 = test: MTT assay, carboplatin cytotoxicity; format: cell-based, human; conditions: 72 hours
Description: (§1) Six breast cancer cell lines were tested. […] The cell lines were purchased from ATCC, and cultured in the recommended media. IC50 values were determined for each cell line using the MTT assay (Henderson et al., International Journal of Cancer 2011) after incubating cells for 72 hours with different concentrations of carboplatin. [^14C] carboplatin (53 mCi/mmol) was purchased from the GE Healthcare (Waukesha, Wis.) and further purified at Moravek Biochemical (Brea, Calif.). Unlabeled carboplatin (USP Pharmaceutical Grade) was used to minimize the usage of radiocarbon and achieve the specific activities required for microdoses and therapeutic doses.

Hs 578T = test: MTT assay, carboplatin cytotoxicity; format: cell-based, human; conditions: 72 hours
Description: as §1

MCF-7 = test: MTT assay, carboplatin cytotoxicity; format: cell-based, human; conditions: 72 hours
Description: as §1

MDA MB 231 = test: MTT assay, carboplatin cytotoxicity; format: cell-based, human; conditions: 72 hours
Description: as §1

MDA MB 468 = test: MTT assay, carboplatin cytotoxicity; format: cell-based, human; conditions: 72 hours
Description: as §1

T47D = test: MTT assay, carboplatin cytotoxicity; format: cell-based, human; conditions: 72 hours
Description: as §1

HT1197 = test: MTT assay IC50, bladder cancer cell line; format: cell-based
Text: (§2) If these diadducts are the predominant DNA lesion responsible for cell death, then the IC50 of the two drugs should be linearly related. Thus, we measured the IC50 of the six NSCLC cell lines from Example 2 to both cisplatin and carboplatin to determine if the sensitivity of these six NSCLC cell lines to the two drugs are correlated. We observed a statistically significant linear correlation of the cytotoxicity of these two drugs in the 6 cell lines used in this study (R^2=0.72, p=0.033, FIG. 9A) and also to six additional ATCC bladder cancer cell lines. (R^2=0.72, p=0.033), FIG. 9B).

J82 = test: MTT assay IC50, bladder cancer cell line; format: cell-based
Text: as §2

RT4 = test: MTT assay IC50, bladder cancer cell line; format: cell-based
Text: as §2

T24 = test: MTT assay IC50, bladder cancer cell line; format: cell-based
Text: as §2

TCCSUP = test: MTT assay IC50, bladder cancer cell line; format: cell-based
Text: as §2

A549 tumor xenografts = test: DNA repair: monoadducts remaining in excised xenograft tumor; format: in vivo, mice; conditions: tumor excised 4 h after microdose, 8 hours in carboplatin-free medium
Description: (§3) DNA repair rates in the xenograft tumor cells were also observed to correlate with carboplatin resistance. This is exemplified by the measurement of DNA repair in the A549 and H232A tumor xenografts (FIG. 10D). Four hours after a microdose was administered to three mice each with A549 and H232A tumor xenografts, the animals were sacrificed and tumors were excised. Tissue from each tumor was minced with a scalpel and washed with PBS. Half of the sample was frozen immediately (control) and half was incubated in cell culture medium (no carboplatin) for 8 hours prior to storage. DNA was extracted from the two sets of experiments and analyzed for carboplatin-DNA monoadducts. The resistant A549 cell line had 4±3% of the carboplatin-DNA monoadducts remaining compared to the control, whereas 56±8% of the monoadducts persisted for the drug sensitive H23 cells.

H232A tumor xenografts = test: as above; format: in vivo, mice; conditions: H23; tumor excised 4 h after microdose, 8 hours in carboplatin-free medium
Description: as §3

PBMC = test: microdose-induced carboplatin-DNA monoadducts in patients; format: in vivo, human; conditions: for 4 h adducts PBMC / 24 h adducts PBMC: microdose; for lowest DNA monoadduct level observed: first nineteen patients, microdose 1% of therapeutic dose
Description: Based upon the previous mouse studies that identified a minimal microdose for accurate AMS analysis of carboplatin monoadducts (1% of therapeutic carboplatin containing 50,000 DPM/gm of mouse body weight), the first in-human evaluation of microdose [^14C]carboplatin was conducted at this same equivalent formulation. The mouse radioactive dose (50,000 DPM/gm), adjusted for body surface area differences between mouse and humans, is equivalent to a dose of 1.0×10^7 DPM/kg of human body weight. The carboplatin dose for human chemotherapy is personalized to a patient's size and kidney function and is calculated using the Calvert formula with an AUC of 6 (Calvert, A. H., et al. “Carboplatin dosage: prospective evaluation of a simple formula based on renal function.” Journal of Clinical Oncology 7.11 (1989): 1748-1756). […] After blood collection, the BD Vacutainer CPT™ tubes were gently inverted several times to ensure mixing with heparin anticoagulant. The tubes were immediately placed on ice or stored at 4° C. and_then processed within 2 hours of collection to separate plasma and PBMC. For processing, the blood filled BD Vacutainer CPT™ tubes were centrifuged at room temperature in a horizontal rotor for 25 minutes at 1600×g. The top plasma layer was transferred to separate tubes and stored at or below −70° C. After most of the plasma was removed from the CPT tube, PBMC were transferred to another tube and washed three times with ice-cold phosphate-buffered solution (PBS). After pelleting the cells and removing the supernatant, the PBMC's were stored frozen at −80° C. until being processed to isolate DNA for determination of the carboplatin-DNA monoadduct frequency. Tumor samples were collected by biopsy or resection approximately 24 hours after administration of the [^14C]carboplatin microdose. These tumor specimens were placed in ice immediately after being obtained, washed three times with ice-cold PBS, and stored at or below −20° C. within 2 hours of collection. These frozen tumor samples were then processed at a later time to isolate DNA for determination of the carboplatin-DNA monoadduct frequency. To isolate DNA, tumor tissue was placed on ice in a sterile petri dish and minced with a sterile scalpel for approximately 30-90 sec per sample. Approximately 20-100 mg of tissue was then processed using the modified Wizard DNA isolation protocol as described previously.
Two lung and three bladder cancer patients were monitored post carboplatin therapeutic treatment to determine therapeutic outcome. Each patient was given a microdose of [^14C]carboplatin by IV injection. The microdose was 1% of therapeutic based upon Calvert calculation and formulated with [^14C]carboplatin at 1.0×10^7 DPM/kg of body weight. At time points of 2, 4, 8 and 24 hours, blood samples were taken from which PBMCs were isolated determination of carboplatin-DNA monoadduct frequency, and expressed as carboplatin-DNA monoadducts per 10^8 nucleotides (FIG. 13).
As we have shown in cell culture and mouse tumor xenograph experiments, the carboplatin-DNA monoadduct frequency is proportional to the dose and time integrated exposure to carboplatin. In this example we establish the useful range of carboplatin-DNA monoadduct frequencies in cancer patients receiving 1% of their therapeutic dose of carboplatin at a fixed time after microdose exposure. […] DNA from PBMC and tumor tissue was extracted and analyzed by AMS for carboplatin-DNA monoadduct frequency. […] Tumor carboplatin-DNA monoadduct frequencies ranged from 0.3 and 42.5 adducts per 10^8 nucleotides.

[1] = Bladder cancer, individual patients

N.N.O=C([O-])C1(C(=O)[O-])CCC1.[Pt+2] [carboplatin]
IC50 (BT 549): 68 µM
IC50 (Hs 578T): 44 µM
IC50 (MCF-7): 137 µM
IC50 (MDA MB 231): 250 µM
IC50 (MDA MB 468): 44 µM
IC50 (T47D): 250 µM
IC50 (HT1197): 84.5 ± 24.6 µM
IC50 (J82): 168 ± 19.9 µM
IC50 (RT4): 56.9 ± 11.2 µM
IC50 (T24): 42.5 ± 6.99 µM
IC50 (TCCSUP): 91.5 ± 6.81 µM
carboplatin-DNA monoadducts remaining compared to the control (A549 tumor xenografts): 4±3%
carboplatin-DNA monoadducts remaining compared to the control (H232A tumor xenografts): 56±8%
4 h adducts PBMC (PBMC; [1]): 1.113 per 10^8 nt and 0.265 per 10^8 nt and 0.545 per 10^8 nt and 0.184 per 10^8 nt and 0.193 per 10^8 nt and 1.004 per 10^8 nt and 0.600 per 10^8 nt and 1.399 per 10^8 nt and 0.599 per 10^8 nt and 0.239 per 10^8 nt and 0.421 per 10^8 nt
24 h adducts PBMC (PBMC; [1]): 0.443 per 10^8 nt and 0.081 per 10^8 nt and 0.930 per 10^8 nt and 0.154 per 10^8 nt and 0.283 per 10^8 nt and 0.968 per 10^8 nt and 0.499 per 10^8 nt and 0.485 per 10^8 nt and 0.329 per 10^8 nt and 0.978 per 10^8 nt
4 h adducts PBMC (PBMC; Hodgkin patient): 0.861 per 10^8 nt
24 h adducts PBMC (PBMC; Hodgkin patient): 0.472 per 10^8 nt
4 h adducts PBMC (PBMC; NSCLC, individual patients): 0.447 per 10^8 nt and 0.662 per 10^8 nt and 0.386 per 10^8 nt and 0.587 per 10^8 nt and 0.234 per 10^8 nt and 2.214 per 10^8 nt
24 h adducts PBMC (PBMC; NSCLC, individual patients): 0.837 per 10^8 nt and 1.3 per 10^8 nt and 0.454 per 10^8 nt and 0.942 per 10^8 nt and 0.342 per 10^8 nt and 0.232 per 10^8 nt
lowest DNA monoadduct level observed (PBMC): ~3.2 monoadducts per cell
lowest DNA monoadduct level observed (PBMC; 1.0×10^7 DPM/kg): 0.05 adducts per 10^8 nucleotides
